The compound `Cc1ccccc1C(=O)Nc1nc(-c2ccco2)c(C(=O)C2CCOCC2)s1` [Compound 363, N-[4-(2-Furyl)-5-(tetrahydropyran-4-ylcarbonyl)thiazol-2-yl]-2-methylbenzamide] returned a melting point of 204 to 206 °C.

The compound `Cc1cccc(C(=O)Nc2nc(-c3ccco3)c(C(=O)C3CCOCC3)s2)c1` [Compound 364, N-[4-(2-Furyl)-5-(tetrahydropyran-4-ylcarbonyl)thiazol-2-yl]-3-methylbenzamide] gave a melting point of 197 to 201 °C.

`COc1ccccc1C(=O)Nc1nc(-c2ccco2)c(C(=O)C2CCOCC2)s1` [Compound 366, N-[4-(2-Furyl)-5-(tetrahydropyran-4-ylcarbonyl)thiazol-2-yl]-2-methoxybenzamide] showed a melting point of 181 to 184 °C.

In turn, `COc1ccc(C(=O)Nc2nc(-c3ccco3)c(C(=O)C3CCOCC3)s2)cc1` [Compound 368, N-[4-(2-Furyl)-5-(tetrahydropyran-4-ylcarbonyl)thiazol-2-yl]-4-methoxybenzamide] returned a melting point of 184 to 188 °C.

As for `CN(C)c1cccc(C(=O)Nc2nc(-c3ccco3)c(C(=O)C3CCOCC3)s2)c1` [Compound 369, 3-(Dimethylamino)-N-[4-(2-furyl)-5-(tetrahydropyran-4-ylcarbonyl)thiazol-2-yl]benzamide], the melting point fell in the range of 239 to 243 °C.

In the case of `CN(C)c1ccc(C(=O)Nc2nc(-c3ccco3)c(C(=O)C3CCOCC3)s2)cc1` [Compound 370, 4-(Dimethylamino)-N-[4-(2-furyl)-5-(tetrahydropyran-4-ylcarbonyl)thiazol-2-yl]benzamide], the melting point fell in the range of 238 to 240 °C.

In turn, `O=C(Nc1nc(-c2ccco2)c(C(=O)C2CCOCC2)s1)c1ccccc1F` [Compound 371, 2-Fluoro-N-[4-(2-furyl)-5-(tetrahydropyran-4-ylcarbonyl)-thiazol-2-yl]benzamide] yielded a melting point of 172 to 176 °C.

Consider `O=C(Nc1nc(-c2ccco2)c(C(=O)C2CCOCC2)s1)c1cccc(F)c1` [Compound 372, 3-Fluoro-N-[4-(2-furyl)-5-(tetrahydropyran-4-ylcarbonyl)-thiazol-2-yl]benzamide], for which the melting point fell in the range of 229 to 231 °C.

Turning to `O=C(Nc1nc(-c2ccco2)c(C(=O)C2CCOCC2)s1)c1ccccc1Cl` [Compound 374, 2-Chloro-N-[4-(2-furyl)-5-(tetrahydropyran-4-ylcarbonyl)-thiazol-2-yl]benzamide], the melting point is 160 to 162 °C.

`O=C(Nc1nc(-c2ccco2)c(C(=O)C2CCOCC2)s1)c1cccc(Cl)c1` [Compound 375, 3-Chloro-N-[4-(2-furyl)-5-(tetrahydropyran-4-ylcarbonyl)-thiazol-2-yl]benzamide] displayed a melting point of 210 to 212 °C.

`N#Cc1ccccc1C(=O)Nc1nc(-c2ccco2)c(C(=O)C2CCOCC2)s1` [Compound 377, 2-Cyano-N-[4-(2-furyl)-5-(tetrahydropyran-4-ylcarbonyl)-thiazol-2-yl]benzamide] showed a melting point of 221 to 224 °C.

The compound `N#Cc1cccc(C(=O)Nc2nc(-c3ccco3)c(C(=O)C3CCOCC3)s2)c1` [Compound 378, 3-Cyano-N-[4-(2-furyl)-5-(tetrahydropyran-4-ylcarbonyl)-thiazol-2-yl]benzamide] registered a melting point of 257 to 260 °C.

`N#Cc1ccc(C(=O)Nc2nc(-c3ccco3)c(C(=O)C3CCOCC3)s2)cc1` [Compound 379, 4-Cyano-N-[4-(2-furyl)-5-(tetrahydropyran-4-ylcarbonyl)-thiazol-2-yl]benzamide] displayed a melting point of 231 to 234 °C.

In turn, `O=C(Nc1nc(-c2ccco2)c(C(=O)C2CCOCC2)s1)c1ccccc1OC(F)(F)F` [Compound 380, N-[4-(2-Furyl)-5-(tetrahydropyran-4-ylcarbonyl)thiazol-2-yl]-2-(trifluoromethoxy)benzamide] came in with a melting point of 131 to 134 °C.

`O=C(Nc1nc(-c2ccco2)c(C(=O)C2CCOCC2)s1)c1cccc(OC(F)(F)F)c1` [Compound 381, N-[4-(2-Furyl)-5-(tetrahydropyran-4-ylcarbonyl)thiazol-2-yl]-3-(trifluoromethoxy)benzamide] displayed a melting point of 197 to 198 °C.

The compound `O=C(Nc1nc(-c2ccco2)c(C(=O)C2CCOCC2)s1)c1ccc(OC(F)(F)F)cc1` [Compound 382, N-[4-(2-Furyl)-5-(tetrahydropyran-4-ylcarbonyl)thiazol-2-yl]-4-(trifluoromethoxy)benzamide] showed a melting point of 177 to 180 °C.

On to `CN(C)Cc1ccc(C(=O)Nc2nc(-c3ccco3)c(C(=O)C3CCOCC3)s2)cc1` [Compound 384, 4-(Dimethylaminomethyl)-N-[4-(2-furyl)-5-(tetrahydropyran-4-ylcarbonyl)thiazol-2-yl]benzamide], for which the melting point was in the range of 109 to 112 °C.

Consider `O=C(Nc1nc(-c2ccco2)c(C(=O)C2CCOCC2)s1)c1ccc(CN2CCCCC2)cc1` [Compound 385, N-[4-(2-Furyl)-5-(tetrahydropyran-4-ylcarbonyl)thiazol-2-yl]-4-(piperidinomethyl)benzamide], for which the melting point was in the range of 160 to 162 °C.

Regarding `O=C(Nc1nc(-c2ccco2)c(C(=O)C2CCOCC2)s1)c1ccc(CN2CCC(O)CC2)cc1` [Compound 386, N-[4-(2-Furyl)-5-(tetrahydropyran-4-ylcarbonyl)thiazol-2-yl]-4-(4-hydroxypiperidinomethyl)benzamide], the melting point was 194 to 195 °C.

As to `O=C(Nc1nc(-c2ccco2)c(C(=O)C2CCOCC2)s1)c1ccc(CN2CCOCC2)cc1` [Compound 387, N-[4-(2-Furyl)-5-(tetrahydropyran-4-ylcarbonyl)thiazol-2-yl]-4-(morpholinomethyl)benzamide], the melting point fell in the range of 92 to 96 °C.

`COc1cccc(C(=O)Nc2nc(-c3ccco3)c(C(=O)C3CCOCC3)s2)c1OC` [Compound 388, N-[4-(2-Furyl)-5-(tetrahydropyran-4-ylcarbonyl)thiazol-2-yl]-2,3-dimethoxybenzamide]: the melting point lay within 198 to 200 °C.

The compound `COc1ccc(C(=O)Nc2nc(-c3ccco3)c(C(=O)C3CCOCC3)s2)c(OC)c1` [Compound 389, N-[4-(2-Furyl)-5-(tetrahydropyran-4-ylcarbonyl)thiazol-2-yl]-2,4-dimethoxybenzamide] gave a melting point of 219 to 222 °C.

The compound `COc1ccc(OC)c(C(=O)Nc2nc(-c3ccco3)c(C(=O)C3CCOCC3)s2)c1` [Compound 390, N-[4-(2-Furyl)-5-(tetrahydropyran-4-ylcarbonyl)thiazol-2-yl]-2,5-dimethoxybenzamide] came in with a melting point of 107 to 110 °C.

Consider `COc1cccc(OC)c1C(=O)Nc1nc(-c2ccco2)c(C(=O)C2CCOCC2)s1` [Compound 391, N-[4-(2-Furyl)-5-(tetrahydropyran-4-ylcarbonyl)thiazol-2-yl]-2,6-dimethoxybenzamide], for which the melting point was in the range of 152 to 156 °C.

For `COc1ccc(C(=O)Nc2nc(-c3ccco3)c(C(=O)C3CCOCC3)s2)cc1OC` [Compound 392, N-[4-(2-Furyl)-5-(tetrahydropyran-4-ylcarbonyl)thiazol-2-yl]-3,4-dimethoxybenzamide], the melting point was 289 to 292 °C.

On to `COc1cc(OC)cc(C(=O)Nc2nc(-c3ccco3)c(C(=O)C3CCOCC3)s2)c1` [Compound 393, N-[4-(2-Furyl)-5-(tetrahydropyran-4-ylcarbonyl)thiazol-2-yl]-3,5-dimethoxybenzamide], for which the melting point is 278 to 280 °C.

Source of the values: patent US7928098B2, “Therapeutic and/or preventive agents for a sleep disorder” (Kyowa Hakko Kirin Co., Ltd., priority 2005, dated 2011).
